Results as given in patent publication US6420367B1, “Pyrimidine derivatives exhibiting antitumor activity” (Shionogo & Co., Ltd., priority 1998, dated 2002).
≈ marks a conversion by molar mass, not a printed value.

Assays:
[1] = test system: DT-R cells (pRRE3-luc-transfected v-ki-ras-transformed NIH3T3 cells); signal derived from Ras oncogene products; assay: Inhibitory effect against cellular signaling derived from Ras oncogene products: luciferase reporter, dissociation of DT-R from DT-C activity (MAC); format: cell-based, mouse; settings: minimal tested concentration at which luciferase activities of DT-C cells and DT-R cells dissociated
Method in brief: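 DT-R (pRRE3-luc) and control DT-C (pGV-P) v-Ki-ras NIH3T3 cells were exposed 24 h to compound in 3-fold dilutions in DMEM/10% FCS at 37 °C, then lysed for luciferase luminescence. MAC is the lowest tested concentration at which DT-R and DT-C activities dissociate.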

[2] = test system: DT-C cells (pGV-P-transfected v-ki-ras-transformed NIH3T3 cells); assay: Luciferase activity in control DT-C cells (IC50-C): non-specific transcription-inhibitory effect or cytotoxicity; format: cell-based, mouse; settings: tested concentration nearest to 50% inhibition in DT-C cells; index of non-specific transcription inhibition or cytotoxicity
Text: Test Example 1 Inhibitory Effect Against Cellular Signaling Derived From Ras Oncogene Products
1) Establishment of Cell Lines Used in Assay
Based on the reporter plasmid (pGV-P (Toyo Ink, Japan)), in which luciferase gene was ligated to SV40-derived minimal promoter, we constructed a plasmid designated pRRE3-luc by inserting 3 copies of chemically synthesized oligonucleotides (Sequence: CAGGATATGACTCT, derived from mouse NVL-3 (M. A. Reddy et al.(1992)Mol. Endocrinol., 6, 1051)) into upstream of the promoter. v-ki-ras-transformed NIH3T3 cells (DT cells, provided by Dr. Makoto Noda (Kyoto Univ., School of medicine)) were transfected with this plasmid by liposome-mediated transfection and transfected cell lines stably incorporated and maintained each plasmid were obtained. We named pGV-P and pRRE3-transfected cell line as DT-C and DT-R, respectively and used in the assay described below.
2) Preparation of Samples
i) All the cell lines were cultured in Dulbecco's Modified Essential Medium (DMEM: 10% Fetal Calf Serum(FCS: Hyclone, USA)) including […] kanamycin (Meiji Seika, Japan) in humidified incubator under condition of 5% CO2 at 37° C.
ii) DT-C and DT-R cells were seeded at 2500 cells/well into flat-bottom 96 well multiplate (Sumitomo bakelite) and incubated for 24 hours.
iii) Test compounds were prepared as 1 mg/ml DMSO solution.
iv) The solution of test compounds were added to the culture. Tested compounds are used at the concentration from […] to 0.51 ng/ml with by 3-fold dilution.
v) After 24 hours, the culture supernatant was completely aspirated and […] of cell-lysing solution (PGC-50 (Toyo Ink, Japan)) was added before cells were dried up. In order to the cells were lysed completely, multiwell plates were left at room temperature for 10 to 30 min. The plates were wrapped up and stored at −20° C. till the day of measurement.
3) Measurement of Samples
i) Melt the samples by putting 96 well multiplate at 37° C. and add 90 μl/well 25 mM Tris (pH 7.5).
ii) Transfer 50 μl of the sample (110 μl) to the 96 well microplate for measurement (Microlite 1 (Dynatech)).
iii) Measure the samples by the luminometer, LUMINOUS CT9000D (Dia-Yatron, Japan). We used Pickagene luminescence kit PGL2000 or LT2.0 (Toyo Ink, Japan) as substrates for luminescence measurement (50 μl/well).
4) Judgment of the Results
i) The luciferase activity of DT-C cells and DT-R cells were plotted in the graph where the relative activity and the compound concentration were expressed as Y-axis and X-axis, respectively. We judged by the degree of dissociation between the activities of DT-C cells and DT-R cells as an index.
ii) Concretely, efficacy of the compound was expressed by two values described below.
b) Among the points of concentration tested, the concentration which is the nearest to 50% inhibition concentration at DT-C cells (IC50-C), was shown as an index of non-specific transcription-inhibitory effect or of cytotoxicity. In case of positive compounds, 50% inhibition concentration above the area of active concentration in DT-C cells was expressed as IC50-C.

human colon cancer HT29 = assay: In vitro cell growth inhibition test, MTT assay; format: cell-based; settings: MTT assay 4 days after compound addition
Method in brief: (§1)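 In vitro testing uses the MTT assay. The same panel includes human pancreas cancer PANC-1.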

[3] = test system: human lung adenocarcinoma A549; assay: In vitro cell growth inhibition test, MTT assay; format: cell-based; settings: MTT assay 4 days after compound addition
Method in brief: as §1

[4] = test system: human pancreas cancer PANC-1; assay: In vitro cell growth inhibition test, MTT assay; format: cell-based; settings: MTT assay 4 days after compound addition
Method in brief: as §1

[5] = test system: human squamous lung cancer Ma44; assay: In vitro cell growth inhibition test, MTT assay; format: cell-based; settings: MTT assay 4 days after compound addition
Method in brief: as §1

[6] = test system: human squamous lung cancer RERF-RC-AI; assay: In vitro cell growth inhibition test, MTT assay; format: cell-based; settings: MTT assay 4 days after compound addition
Method in brief: as §1

| SMILES | MAC (Minimal Active Concentration) [1] [µg/mL] | IC50-C [2] [µg/mL] | IC50, HT29 (human colon cancer HT29) [µg/mL] | IC50, A549 [3] [µg/mL] | IC50, PANC-1 [4] [µg/mL] | IC50, Ma44 [5] [µg/mL] | IC50, RERF-LC-AI [6] [µg/mL] |
| --- | --- | --- | --- | --- | --- | --- | --- |
| CCNC(=Nc1ncncc1CSc1nnc(-c2ccccc2N)o1)NCC [Compound A-33] | 0.0137 | >10 | 0.0071 (≈ 0.0178 µM) | 0.012 (≈ 0.0301 µM) | 0.0076 (≈ 0.0191 µM) | 0.0087 (≈ 0.0218 µM) | 0.004 (≈ 0.01 µM) |
| CCNC(=Nc1nc(C)ncc1CSc1nnc(-c2ccc(OC)cc2)o1)NCC [Compound A-73] | 0.123 | >10 | 0.016 (≈ 0.0374 µM) | 0.052 (≈ 0.122 µM) | 0.029 (≈ 0.0678 µM) | 0.048 (≈ 0.112 µM) | 0.012 (≈ 0.0281 µM) |
| CCNC(=Nc1nc(C)ncc1CSc1nnc(-c2ccc([N+](=O)[O-])cc2N)o1)NCC [Compound A-75] | <0.000508 | >10 | 0.0038 (≈ 0.00831 µM) | 0.0087 (≈ 0.019 µM) | 0.0065 (≈ 0.0142 µM) | 0.0058 (≈ 0.0127 µM) | 0.004 (≈ 0.00874 µM) |
| CCNC(=Nc1nc(C)ncc1CSc1nnc(-c2ccc(Cl)cc2Cl)o1)NCC [Compound A-80] | 0.370 | 3.33 (≈ 7.14 µM) | 0.024 (≈ 0.0515 µM) | 0.1 (≈ 0.214 µM) | 0.05 (≈ 0.107 µM) | 0.062 (≈ 0.133 µM) | 0.018 (≈ 0.0386 µM) |
| CCNC(=Nc1nc(C)ncc1CSc1nnc(-c2ccc(N)cc2F)o1)NCC [Compound A-81] | 0.0412 | >10 | 0.007 (≈ 0.0163 µM) | 0.023 (≈ 0.0534 µM) | 0.016 (≈ 0.0372 µM) | 0.032 (≈ 0.0743 µM) | 0.009 (≈ 0.0209 µM) |
| CCNC(=Nc1nc(C)ncc1CSc1nnc(-c2ccc(O)cc2)o1)NCC [Compound A-88] | 0.123 | >10 | 0.043 (≈ 0.104 µM) | 0.14 (≈ 0.339 µM) | 0.036 (≈ 0.0871 µM) | 0.097 (≈ 0.235 µM) | 0.02 (≈ 0.0484 µM) |
| CCNC(=Nc1nc(C)ncc1CSc1nnc(-c2ccc(N)c(O)c2)o1)NCC [Compound A-89] | 0.123 | >10 | 0.05 (≈ 0.117 µM) | 0.15 (≈ 0.35 µM) | 0.049 (≈ 0.114 µM) | 0.86 (≈ 2.01 µM) | 0.016 (≈ 0.0373 µM) |
| CCNC(=Nc1nc(C)ncc1CSc1nnc(-c2ccc(C(F)(F)F)cc2)o1)NCC [Compound A-106] | 0.370 | >10 | 0.043 (≈ 0.0924 µM) | 0.082 (≈ 0.176 µM) | 0.056 (≈ 0.12 µM) | 0.086 (≈ 0.185 µM) |  |
| CCNC(=Nc1nc(C)ncc1CSc1nnc(-c2ccc(Br)cc2)o1)NCC [Compound A-108] | 0.123 | >10 | 0.022 (≈ 0.0462 µM) | 0.027 (≈ 0.0567 µM) | 0.027 (≈ 0.0567 µM) | 0.029 (≈ 0.0609 µM) |  |
| CCNC(=Nc1ncncc1CSc1nnc(-c2ccc(CN)cc2)o1)NCC [Compound A-119] | 0.37 | >10 | 0.1 (≈ 0.242 µM) | 1.2 (≈ 2.91 µM) | 0.068 (≈ 0.165 µM) | 0.2 (≈ 0.485 µM) | 0.023 (≈ 0.0558 µM) |
| CCNC(=Nc1ncncc1CSc1nnc(-c2ccc([N+](=O)[O-])cc2)o1)NC(C)C [Compound A-121] | <0.000508 | >10 | 0.02 (≈ 0.0452 µM) | 0.058 (≈ 0.131 µM) | 0.02 (≈ 0.0452 µM) | 0.02 (≈ 0.0452 µM) | 0.02 (≈ 0.0452 µM) |
| CCCNC(=Nc1nc(C)ncc1CSc1nnc(-c2ccc([N+](=O)[O-])cc2)o1)NCCC [Compound A-127] | 0.0137 | 3.33 (≈ 7.08 µM) | 0.018 (≈ 0.0383 µM) | 0.028 (≈ 0.0595 µM) | 0.017 (≈ 0.0361 µM) | 0.017 (≈ 0.0361 µM) | 0.015 (≈ 0.0319 µM) |
| CCCCNC(=Nc1nc(C)ncc1CSc1nnc(-c2ccc([N+](=O)[O-])cc2)o1)NCCCC [Compound A-128] | 0.0412 | 3.33 (≈ 6.68 µM) | 0.042 (≈ 0.0842 µM) | 0.047 (≈ 0.0943 µM) | 0.026 (≈ 0.0521 µM) | 0.044 (≈ 0.0882 µM) | 0.036 (≈ 0.0722 µM) |
| CCNC(=Nc1nc(C(C)C)ncc1CSc1nnc(-c2ccc([N+](=O)[O-])cc2)o1)NCC [Compound A-130] | 0.123 | 3.33 (≈ 7.08 µM) | 0.029 (≈ 0.0616 µM) | 0.074 (≈ 0.157 µM) | 0.018 (≈ 0.0383 µM) | 0.039 (≈ 0.0829 µM) | 0.023 (≈ 0.0489 µM) |
| CCNC(=Nc1nc(CC)ncc1CSc1nnc(-c2ccc([N+](=O)[O-])cc2)o1)NCC [Compound A-131] | 0.0412 | >10 | 0.025 (≈ 0.0548 µM) | 0.03 (≈ 0.0657 µM) | 0.028 (≈ 0.0613 µM) | 0.028 (≈ 0.0613 µM) | 0.015 (≈ 0.0329 µM) |
| CCNC(=Nc1nc(C)ncc1CSc1nnc(-c2ccc([N+](=O)[O-])cc2)o1)NC [Compound A-133] | 0.0137 | >10 | 0.068 (≈ 0.159 µM) | 0.047 (≈ 0.11 µM) | 0.015 (≈ 0.035 µM) | 0.015 (≈ 0.035 µM) | 0.01 (≈ 0.0233 µM) |
| CCCCNC(=Nc1nc(C)ncc1CSc1nnc(-c2ccc([N+](=O)[O-])cc2)o1)NCC [Compound A-136] | 0.0137 | 3.33 (≈ 7.08 µM) | 0.011 (≈ 0.0234 µM) | 0.031 (≈ 0.0659 µM) | 0.016 (≈ 0.034 µM) | 0.016 (≈ 0.034 µM) | 0.012 (≈ 0.0255 µM) |
| CCCNC(=Nc1nc(CC)ncc1CSc1nnc(-c2ccc([N+](=O)[O-])cc2)o1)NCCC [Compound A-138] | 0.0412 | 1.11 (≈ 2.29 µM) | 0.03 (≈ 0.0619 µM) | 0.046 (≈ 0.0949 µM) | 0.026 (≈ 0.0537 µM) | 0.04 (≈ 0.0825 µM) | 0.043 (≈ 0.0887 µM) |
| CCCNC(=Nc1ncncc1CSc1nnc(-c2ccc([N+](=O)[O-])cc2)o1)NCCC [Compound A-155] | 0.00457 | 3.33 (≈ 7.29 µM) | 0.08 (≈ 0.175 µM) |  | 0.009 (≈ 0.0197 µM) | 0.009 (≈ 0.0197 µM) | 0.006 (≈ 0.0131 µM) |
| CCCNC(N)=Nc1nc(C)ncc1CSc1nnc(-c2ccc(N)cc2)o1 [Compound A-157] | 0.0137 | >10 | 0.008 (≈ 0.0201 µM) |  | 0.015 (≈ 0.0376 µM) | 0.044 (≈ 0.11 µM) | 0.005 (≈ 0.0125 µM) |
| CCCNC(N)=Nc1nc(C)ncc1CSc1nnc(-c2ccc([N+](=O)[O-])cc2)o1 [Compound A-158] | 0.0412 | >10 | 0.025 (≈ 0.0583 µM) |  | 0.03 (≈ 0.07 µM) | 0.032 (≈ 0.0747 µM) | 0.007 (≈ 0.0163 µM) |
